Source: US10933111B2, “Treating dry eye disorders” (Boston Biotechnology US CORP, priority 2019, dated 2021)

Tested on: patients with dry eye disorder and other eye symptoms
Assay: Clinical usage of deacidified coconut oil for treating eye diseases or disorders (three patients)
Type: in vivo, human
Conditions: before deacidified coconut oil
Experimental: The deacidified coconut oil was initially developed for treating the dry eye disorder. As the research continued, it was determined that the deacidified coconut oil can also be used to treat asthenopia, impaired vision, blurred vision, photophobia, astigmatism, and blepharitis. As shown in the following cases, the deacidified coconut oil was successfully administered to three patients with positive outcomes.
[…] […] […] […] […] In 2013-2014, the patient developed additional eye symptoms including astigmatism, blepharitis, anxiety and body weight loss (e.g., about 10 kilograms). In 2015, the patient used the deacidified coconut oil as described herein as eye drops, placed the thermal pad as described herein on the eyes, and took herb composition as described herein. […] In 2019, the symptoms of dry eye disorder including pain, dryness, redness, foreign matter sensation and insomnia were gone. In addition, symptoms such as repetitive visual fatigue, decreased vision, blurred vision, photophobia, sensitivity to wind, astigmatism, and eyelid inflammation disappeared. The patient's overall vision condition improved relative to that in 2015. The eyeglass prescription for both eyes decreased by 1.50-2.00.
The second patient, person. […]

Substance: Recombinant Bovine Basic Fibroblast Growth Factor Eye Drops: Recombinant Bovine Basic Fibroblast Growth Factor Eye Drops
- effect of earlier treatment, second patient: No significant improvement was observed
